Laboratory results as given in US8048869B2, “Pharmaceutical composition for use in hormone replacement therapy” (Pantarhei Bioscience B.V., priority 2001, dated 2011).

Key:
[1] = target: T1, human sex Hormone Binding Globulin (SHBG) (Homo sapiens, UniProt P04278); test: Competitive steroid-binding assay, SHBG; conditions: [3H]DHT or [3H]estradiol as labeled ligands (FIG. 6)
T1 construct: Human SHBG was purified from transgenic mouse serum, as described previously; from tissue; host or cells: serum of mice transgenic for human SHBG
T1 sequence (P04278 30-402): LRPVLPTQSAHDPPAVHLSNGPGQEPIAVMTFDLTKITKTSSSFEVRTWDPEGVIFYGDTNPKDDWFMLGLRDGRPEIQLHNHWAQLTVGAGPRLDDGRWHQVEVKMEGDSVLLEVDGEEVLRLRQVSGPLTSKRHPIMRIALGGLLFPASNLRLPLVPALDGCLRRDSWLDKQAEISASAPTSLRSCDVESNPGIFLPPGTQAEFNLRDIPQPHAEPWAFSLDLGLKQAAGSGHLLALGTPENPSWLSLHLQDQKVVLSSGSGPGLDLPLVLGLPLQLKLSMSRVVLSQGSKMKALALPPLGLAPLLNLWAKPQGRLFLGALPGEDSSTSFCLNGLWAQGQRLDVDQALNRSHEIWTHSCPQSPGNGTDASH
Procedure: Human SHBG was treated for 30 min at room temperature with a dextran-coated charcoal (DCC) suspension in phosphate buffered saline (PBS) to remove any steroid ligand. After centrifugation (2,000×g for 10 min) to sediment the DCC, the supernatant containing the human SHBG was diluted in PBS to a concentration of 1 nM based on its steroid binding capacity.
After incubation for 1 h at room temperature the. reaction mixtures were placed in an ice bath for a further 15 muin. […] The average amounts of [^3H]labeled ligands bound to SHBG at each concentration of competitor (B) were expressed as a percentage of the average amounts of [^3H]labeled ligands bound to SHBG in the absence of competitor (B0), and were plotted against the concentration of competitor in each assay tube.

OVX-rats [2] = test: pQCT densitometry of proximal tibiae, ovariectomized aged rat osteoporosis model; assay type: in vivo; conditions: po, 0.1 mg/kg/day, 4 weeks, proximal tibiae
Procedure: (§1) The ovariectomized aged rat was used as a model for the human disease osteoporosis. This is an established animal model, recommended by the United States Food and Drug Administration (FDA), to evaluate and assess potential agents for osteoporosis prevention and therapy. The anti-resorptive efficacy of estetrol (E4) was tested by ex vivo measuring total and trabecular bone mineral density and bone strength after 4 weeks of treatment at necropsy. 17α-ethinyl-estradiol (EE) and vehicle (1% ethanol/arachidis oil) served as controls in this bioassay.
(§2) Three months old female Sprague-Dawley rats were either sham-operated (Sham) or ovariectomized (OVX) one day prior to commencement of the dosing study. Animals were anesthetized using a ketamine/xylazine anesthetic mixture and underwent a bilateral ovariectomy or were sham-treated. A section of hair on the dorsal surface was shaved and an incision made overlying the lumbar region of the spine. The skin was separated from the underlying fascia so that a second incision could be made through the abdominal musculature approximately caudal to the kidneys. The ovaries were then exteriorized and removed and the musculature was closed with a single suture. The skin incision was closed using surgical staples.
Ten animals per treatment group were orally dosed once per day for four consecutive weeks. […] Vehicle control was daily administered to one group of OVX-animals and sham-operated rats. After treatment, anesthetized rats were subjected to cardiac puncture and asphyxiated by CO2 inhalation. Tibiae and femura were removed, cleaned of soft-tissue and fixed and stored in 70% ethanol/saline at 4° C. (tibia) or saline at 4° C. (femura) until fuirther analysis.
Ex vivo peripheral Quantitative Computed Tomography (pQCT) was performed on the excised left tibiae using a Stratec XCT-RM and associated software (Stratec Medizintechnik GmbH, Pforzheim; Germany, software version 5.40). The scans were performed at 12% of the total length from the proximal end of the tibiae. The positions were verified using scout views and one 0.5-mm slice perpendicular to the long axis of the tibial shaft was acquired from each site. The scans were analyzed using a threshold for delineation of the external boundary. The total and trabecular bone mineral content, area and density at each site were determined. Furthermore, pQCT data for mean total bone mineral density are depicted in FIG. 1.

OVX-rats [3] = test: Indentation test of distal femur (bone biomechanical strength), OVX rat; assay type: in vivo; conditions: po, 0.1 mg/kg/day, 4 weeks, distal femur
Procedure: as §1, §2
Ten animals per treatment group were orally dosed once per day for four consecutive weeks. The dosing commenced 1 day after surgical removal of the ovaries and was administered by oral gavage using a syringe and stainless steel gavage needle at doses of 0.1 mg/kg /day EE, or either 2.5, 0.5 or 0.1 mg/kg/day E4. Vehicle control was daily administered to one group of OVX-animals and sham-operated rats. After treatment, anesthetized rats were subjected to cardiac puncture and asphyxiated by CO2 inhalation. Tibiae and femura were removed, cleaned of soft-tissue and fixed and stored in 70% ethanol/saline at 4° C. (tibia) or saline at 4° C. (femura) until fuirther analysis.
Ex vivo evaluation of bone biomechanical strength was performed with an indentation test at the distal femura. Prior to mechanical testing femura were rinsed in cold saline and carefully cleaned of any remaining adherent soft tissue. A 3-mm segment of the distal femoral metaphysis was cut directly proximal to the femoral condyle with a low-speed diamond saw under constant saline irrigation. The load was applied with a cylindrical indenter (with a flat testing face of 1.6 mm diameter) to the center of marrow cavity on the distal face of the segment. The indenter was allowed to penetrate the cavity at a constant displacement of 6 mm/min to a depth of 2 mm before load reversal.
The maximum load, stiffness and energy absorbed were determined from load displacement curves. Ultimate strength was calculated by dividing the maximum load by the indenter area. Furthermore, mean ultimate strength values are depicted in FIG. 2. […] Reductions in maximum load, stiffness, energy and ultimate strength were −68%, −68%, −27% and −68%, respectively, clearly accompanying the bone mineral density loss in estrogen deficient rats.

SMILES	relative binding affinity for human SHBG [1]	Mean Total Bone Mineral Area (OVX-rats [2]) [mm^2]	Mean Total Bone Mineral Content (OVX-rats [2]) [mg/mm]	Mean Total Bone Mineral Density (OVX-rats [2]) [mg/mL]	Mean Trabecular Bone Mineral Area (OVX-rats [2]) [mm^2]	Mean Trabecular Bone Mineral Content (OVX-rats [2]) [mg/mm]	Mean Trabecular Bone Mineral Density (OVX-rats [2]) [mg/mL]	Energy (OVX-rats [3]) [mJ]	Maximum load (OVX-rats [3]) [N]	Stiffness (OVX-rats [3]) [N/mm]	Ultimate strength (OVX-rats [3]) [N/mm2]
C[C@]12CCC(=O)C[C@@H]1CC[C@@H]1[C@@H]2CC[C@]2(C)[C@@H](O)CC[C@@H]12 [5α-dihydrotestosterone]	in this order, show an increased relative binding affinity	–	–	–	–	–	–	–	–	–	–
C[C@]12CC[C@H]3[C@@H](CCC4=CC(=O)CC[C@@]43C)[C@@H]1CC[C@@H]2O [testosterone]	in this order, show an increased relative binding affinity	–	–	–	–	–	–	–	–	–	–
C#C[C@]1(O)CC[C@H]2[C@@H]3CCc4cc(O)ccc4[C@H]3CC[C@@]21C [EE, 17α-ethinyl estradiol, reference compound]	–	13.87	9.66	697.48	6.24	1.81	290.16	0.53	9.05	169.12	4.80
